EC50 data for 39 compounds are collected here from patent publication US9682940B2, “Indazole derivatives useful as CB-1 inverse agonists” (Janssen Pharmaceutica NV, priority 2015, dated 2017).

The target in experiment [1] is Human CB2R (Cannabanoid receptor 2) (Homo sapiens (Human), UniProt P34972). The experiment in a line: CB-2 in vitro cAMP (HTRF) assay in HEK-293 cells. The format is cell-based. Conditions: HEK-293 cells stably transfected with human CB2R, 250 nM Forskolin, mean where tested more than once, read-out: CB-2 (HEK_cAMP) EC50. Put shortly:
(§1)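 HEK-293 cells stably expressing human CB1 or CB2 plated overnight, then tested in HBSS/5 mM HEPES/0.1% BSA with 0.5 mM IBMX and forskolin (1.5 μM working dilution). Intracellular cAMP quantified by competitive HTRF immunoassay (d2-cAMP, cryptate anti-cAMP) against a cAMP standard curve; compounds as 1/3 serial dilutions from 10 mM DMSO stocks.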

In experiment [2] the target is Human CB1R (Cannabanoid receptor 1) (Homo sapiens (Human), UniProt P21554). The experiment in a line: CB-1 in vitro cAMP (HTRF) assay in HEK-293 cells. The format is cell-based. The note with it: HEK-293 cells stably transfected with human CB1R, 250 nM Forskolin, mean where tested more than once, read-out: CB-1 (HEK_cAMP) EC50. An outline of the steps: as §1
Chain of Human CB1R (Cannabanoid receptor 1) (P21554 whole entry): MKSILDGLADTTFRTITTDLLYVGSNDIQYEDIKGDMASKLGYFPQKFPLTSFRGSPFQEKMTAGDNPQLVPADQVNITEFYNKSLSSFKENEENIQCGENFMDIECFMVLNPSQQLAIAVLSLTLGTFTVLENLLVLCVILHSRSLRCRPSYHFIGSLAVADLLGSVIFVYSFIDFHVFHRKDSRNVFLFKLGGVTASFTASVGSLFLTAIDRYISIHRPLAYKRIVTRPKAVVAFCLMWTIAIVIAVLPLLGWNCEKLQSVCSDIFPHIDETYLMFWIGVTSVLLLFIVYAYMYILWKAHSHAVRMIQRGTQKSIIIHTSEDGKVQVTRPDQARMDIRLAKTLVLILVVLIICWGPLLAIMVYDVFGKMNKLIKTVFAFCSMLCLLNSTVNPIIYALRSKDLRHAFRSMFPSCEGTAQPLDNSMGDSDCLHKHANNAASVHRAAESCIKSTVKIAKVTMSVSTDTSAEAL

The structures appear in SMILES notation.

Chain of Human CB2R (Cannabanoid receptor 2) (P34972 whole entry): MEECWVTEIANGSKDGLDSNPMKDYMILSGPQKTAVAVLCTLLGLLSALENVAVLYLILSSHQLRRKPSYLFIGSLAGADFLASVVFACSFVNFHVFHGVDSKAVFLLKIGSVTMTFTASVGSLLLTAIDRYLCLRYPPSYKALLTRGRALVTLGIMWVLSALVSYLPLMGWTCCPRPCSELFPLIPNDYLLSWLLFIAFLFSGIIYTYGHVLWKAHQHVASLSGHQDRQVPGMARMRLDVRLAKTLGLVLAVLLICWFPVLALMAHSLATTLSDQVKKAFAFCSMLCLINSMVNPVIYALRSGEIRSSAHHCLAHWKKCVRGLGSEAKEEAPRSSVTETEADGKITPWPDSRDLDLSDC

For the compound `NC(=O)c1ccc(S(=O)(=O)N2CCC(c3c4cc(C(c5ccc(Cl)cc5)c5ccc(Cl)cc5)ccc4nn3C3CC3)CC2)cc1` [Compound 118, 4-(4-(5-(bis(4-chlorophenyl)methyl)-2-cyclopropyl-2H-indazol-3-yl)piperidin-1-ylsulfonyl)benzamide], the EC50 in experiment [1] was above 10000 nM; in experiment [2], 4 nM.

In the case of `O=S(=O)(c1ccccc1C(F)(F)F)N1CCC(c2n[nH]c3ccc(C(c4ccc(Cl)cc4)c4ccc(Cl)cc4)cc23)CC1` [Compound 33], the EC50 in experiment [1] was above 10000 nM; in experiment [2] it was 49 nM.

For the compound `O=C(O)CC(=O)N1CCC(c2nn(C3CC3)c3ccc(C(c4ccc(Cl)cc4)c4ccc(Cl)cc4)cc23)CC1` [Compound 102], the results for the EC50 in experiment [1] and in experiment [2] were above 10000 nM and 477 nM, respectively.

Consider `O=C(c1nnc[nH]1)N1CCC(c2n[nH]c3ccc(C(c4ccc(Cl)cc4)c4ccc(Cl)cc4)cc23)CC1` [Compound 144], for which the EC50 in experiment [1] is above 10000 nM; in experiment [2], 5480 nM.

Take `CCOC(=O)Cn1nc(C2CCN(S(=O)(=O)C(F)(F)F)CC2)c2cc(C(c3ccc(Cl)cc3)c3ccc(Cl)cc3)ccc21` [Compound 75]: the EC50 in experiment [1] was above 10000 nM; in experiment [2] it was 3920 nM.

For `O=C(O)c1ccc(S(=O)(=O)N2CCC(c3c4cc(C(c5ccc(Cl)cc5)c5ccc(Cl)cc5)ccc4nn3C3CC3)CC2)o1` [Compound 171, 5-(4-(5-(bis(4-chlorophenyl)methyl)-2-cyclopropyl-2H-indazol-3-yl)piperidin-1-ylsulfonyl)furan-2-carboxylic acid], the EC50 in experiment [1] was above 10000 nM; in experiment [2], 3 nM.

In the case of `NS(=O)(=O)N1CCC(c2n[nH]c3ccc(C(c4ccc(Cl)cc4)c4ccc(Cl)cc4)cc23)CC1` [Compound 23], the EC50 in experiment [1] is above 10000 nM; in experiment [2], 2150 nM.

For `O=C(O)c1ccc(S(=O)(=O)N2CCC(c3c4cc(C(c5ccc(Cl)cc5)c5ccc(Cl)cc5)ccc4nn3C3CC3)CC2)cc1Cl` [Compound 161, 4-(4-(5-(bis(4-chlorophenyl)methyl)-2-cyclopropyl-2H-indazol-3-yl)piperidin-1-ylsulfonyl)-2-chlorobenzoic acid], the EC50 was 950 nM in experiment [1] and 4 nM in experiment [2].

With `O=C(O)c1cccc(CN2CCC(c3c4cc(C(c5ccc(Cl)cc5)c5ccc(Cl)cc5)ccc4nn3C3CC3)CC2)c1` [Compound 257, 3-((4-(5-(bis(4-chlorophenyl)methyl)-2-cyclopropyl-2H-indazol-3-yl)piperidin-1-yl)methyl)benzoic acid], the figures for the EC50 in experiment [1] and in experiment [2] were above 5000 nM and 13 nM, respectively.

On to `O=C(O)c1ccc(C(O)(c2ccc(Cl)cc2)c2ccc3[nH]nc(C4CCN(S(=O)(=O)C(F)(F)F)CC4)c3c2)cc1` (stereo not drawn) [Compound 187], for which the values for the EC50 in experiment [1] and in experiment [2] were above 10000 nM and 3040 nM, respectively.

For the compound `NC(=O)Cc1ccc(N2CCC(c3n[nH]c4ccc(C(c5ccc(Cl)cc5)c5ccc(Cl)cc5)cc34)CC2)cc1` [Compound 223], the figures for the EC50 in experiment [1] and in experiment [2] were above 10000 nM and 699 nM, respectively.

Regarding `O=C(O)c1ccc(S(=O)(=O)N2CCC(c3n[nH]c4ccc(C(c5ccc(Cl)cc5)c5ccc(Cl)cc5)cc34)CC2)cc1` [Compound 27], the EC50 in experiment [1] is above 10000 nM; in experiment [2], 410 nM.

On to `NC(=O)COc1ccc(N2CCC(c3n[nH]c4ccc(C(c5ccc(Cl)cc5)c5ccc(Cl)cc5)cc34)CC2)cc1` [Compound 217], for which the EC50 in experiment [1] is 4100 nM; in experiment [2] it was 1030 nM.

For the compound `Nc1ccc(C(c2ccc(Cl)cc2)c2ccc3[nH]nc(N4CCN(S(=O)(=O)C(F)(F)F)CC4)c3c2)cc1` (stereo not drawn) [Compound 226], the results for the concentration giving a half-maximal response (EC50) in experiment [1] and in experiment [2] were 5500 nM and 8 nM, respectively.

As to `O=C(CCO)N1CCC(c2c3cc(C(c4ccc(Cl)cc4)c4ccc(Cl)cc4)ccc3nn2C2CC2)CC1` [Compound 132], the EC50 in experiment [1] was above 10000 nM; in experiment [2], 166 nM.

As for `NC(=O)c1ccccc1Cn1nc(N2CCN(S(=O)(=O)C(F)(F)F)CC2)c2cc(C(c3ccc(Cl)cc3)c3ccc(Cl)cc3)ccc21` [Compound 55], the EC50 in experiment [1] was above 10000 nM; in experiment [2], 649 nM.

Take `CC(C)(C)OC(=O)N1CCC(Nc2n[nH]c3ccc(C(c4ccc(Cl)cc4)c4ccc(Cl)cc4)cc23)CC1` [Compound 74]: the EC50 in experiment [1] was above 10000 nM; in experiment [2] it was 162 nM.

Turning to `O=C(O)CS(=O)(=O)N1CCC(c2n[nH]c3ccc(C(c4ccc(Cl)cc4)c4ccc(Cl)cc4)cc23)CC1` [Compound 22], the EC50 in experiment [1] is above 10000 nM; in experiment [2] it was 249 nM.

For `CCNC(=O)N1CCC(c2n[nH]c3ccc(C(c4ccc(Cl)cc4)c4ccc(Cl)cc4)cc23)CC1` [Compound 264], the EC50 was found to be 4270 nM in experiment [1] and 199 nM in experiment [2].

With `O=C(O)c1ccc(N2CCC(c3c4cc(C(c5ccc(Cl)cc5)c5ccc(Cl)cc5)ccc4nn3C3CC3)CC2)cc1` [Compound 193], the EC50 in experiment [1] turned out to be 9300 nM; in experiment [2], 474 nM.

Turning to `O=C(O)c1ccccc1S(=O)(=O)N1CCC(c2nn(C3CC3)c3ccc(C(c4ccc(Cl)cc4)c4ccc(Cl)cc4)cc23)CC1` [Compound 87], the EC50 is above 10000 nM in experiment [1] and 6740 nM in experiment [2].

Turning to `O=S(=O)(N1CCC(c2nn(CCO)c3ccc(C(c4ccc(Cl)cc4)c4ccc(Cl)cc4)cc23)CC1)C(F)(F)F` [Compound 79], the EC50 was above 10000 nM in experiment [1] and 14 nM in experiment [2].

Take `O=C(O)c1cccc(CN2CCC(c3nn(C4CC4)c4ccc(C(c5ccc(F)cc5)c5ccc(Cl)cc5)cc34)CC2)c1` (stereo not drawn) [Compound 246]: the EC50 in experiment [1] is above 10000 nM; in experiment [2] it was 29 nM.

Turning to `NC(=O)COc1ccc(N2CCC(c3n[nH]c4ccc(C(c5ccc(Cl)cc5)c5ccc(Cl)cc5)cc34)CC2)cc1` [Compound 224], the results for the EC50 in experiment [1] and in experiment [2] were above 10000 nM and 2080 nM, respectively.

Regarding `CNC(=O)c1cc(S(=O)(=O)N2CCC(c3c4cc(C(c5ccc(Cl)cc5)c5ccc(Cl)cc5)ccc4nn3C3CC3)CC2)ccc1OC` [Compound 159, 5-(4-(5-(bis(4-chlorophenyl)methyl)-2-cyclopropyl-2H-indazol-3-yl)piperidin-1-ylsulfonyl)-2-methoxy-N-methylbenzamide], the values for the EC50 in experiment [1] and in experiment [2] were above 10000 nM and 3 nM, respectively.

In the case of `O=C(O)c1ccc(CN2CCC(c3c4cc(C(c5ccc(Cl)cc5)c5ccc(Cl)cc5)ccc4nn3C3CC3)CC2)cc1` [Compound 256, 4-((4-(5-(bis(4-chlorophenyl)methyl)-2-cyclopropyl-2H-indazol-3-yl)piperidin-1-yl)methyl)benzoic acid], the EC50 in experiment [1] is above 10000 nM; in experiment [2] it was 30 nM.

Consider `O=S(=O)(C(F)F)N1CCC(c2n[nH]c3ccc(C(c4ccc(Cl)cc4)c4ccc(Cl)cc4)cc23)CC1` [Compound 219], for which the results for the EC50 in experiment [1] and in experiment [2] were above 10000 nM and 1540 nM, respectively.

For `O=C(O)c1cncc(CN2CCC(c3c4cc(C(c5ccc(Cl)cc5)c5ccc(Cl)cc5)ccc4nn3C3CC3)CC2)c1` [Compound 255, 5-((4-(5-(bis(4-chlorophenyl)methyl)-2-cyclopropyl-2H-indazol-3-yl)piperidin-1-yl)methyl)nicotinic acid], the EC50 in experiment [1] was above 10000 nM; in experiment [2], 34 nM.

In the case of `O=C(O)c1cccc(CN2CCC(c3c4cc(C(c5ccc(Cl)cc5)c5ccc(Cl)cc5)ccc4nn3C3CC3)CC2)n1` [Compound 251, 6-((4-(5-(bis(4-chlorophenyl)methyl)-2-cyclopropyl-2H-indazol-3-yl)piperidin-1-yl)methyl)picolinic acid], the EC50 in experiment [1] was above 10000 nM; in experiment [2], 14 nM.

Turning to `O=C(O)c1cccc(N2CCC(c3n[nH]c4ccc(C(c5ccc(Cl)cc5)c5ccc(Cl)cc5)cc34)CC2)c1` [Compound 212], the values for the EC50 in experiment [1] and in experiment [2] were above 10000 nM and 1830 nM, respectively.

Take `COc1ccc(S(=O)(=O)N2CCC(c3c4cc(C(c5ccc(Cl)cc5)c5ccc(Cl)cc5)ccc4nn3C3CC3)CC2)cc1` [Compound 152, 5-(bis(4-chlorophenyl)methyl)-2-cyclopropyl-3-(1-(4-methoxyphenylsulfonyl)piperidin-4-yl)-2H-indazole]: the EC50 is above 10000 nM in experiment [1] and 17 nM in experiment [2].

For `O=C(O)c1cccc(CN2CCC(c3nn(C4CC4)c4ccc(C(c5ccc(F)cc5)c5ccc(F)cc5)cc34)CC2)c1` [Compound 243], the EC50 in experiment [1] is above 10000 nM; in experiment [2], 285 nM.

In the case of `COC(=O)Cn1nc(N2CCN(S(=O)(=O)C(F)(F)F)CC2)c2cc(C(c3ccc(Cl)cc3)c3ccc(Cl)cc3)ccc21` [Compound 20], the EC50 in experiment [1] was above 10000 nM; in experiment [2], 165 nM.

In the case of `O=S(=O)(N1CCC(c2nn(-c3ccccc3Cl)c3ccc(C(c4ccc(Cl)cc4)c4ccc(Cl)cc4)cc23)CC1)C(F)(F)F` [Compound 48], the EC50 in experiment [1] was above 10000 nM; in experiment [2], 31 nM.

Take `O=C(O)c1cccc(S(=O)(=O)N2CCC(c3nn(C4CC4)c4ccc(C(c5ccc(Cl)cc5)c5ccc(Cl)cc5)cc34)CC2)c1` [Compound 88]: the EC50 is above 10000 nM in experiment [1] and 115 nM in experiment [2].

On to `NC(=O)c1cccc(C(=O)N2CCC(c3nn(C4CC4)c4ccc(C(c5ccc(Cl)cc5)c5ccc(Cl)cc5)cc34)CC2)c1` [Compound 98], for which the EC50 in experiment [1] was above 10000 nM; in experiment [2], 64 nM.

With `O=S(=O)(C1CC1)N1CCC(c2n[nH]c3ccc(C(c4ccc(Cl)cc4)c4ccc(Cl)cc4)cc23)CC1` [Compound 54], the EC50 in experiment [1] is above 10000 nM; in experiment [2], 27 nM.

Turning to `O=C(O)c1cccc(N2CCC(c3c4cc(C(c5ccc(Cl)cc5)c5ccc(Cl)cc5)ccc4nn3C3CC3)CC2)c1` [Compound 183], the EC50 is above 10000 nM in experiment [1] and 77 nM in experiment [2].

In the case of `Cc1ccc(C(c2ccc(Cl)cc2)c2ccc3c(c2)c(C2CCN(Cc4cccc(C(=O)O)c4)CC2)nn3C2CC2)cc1` (stereo not drawn) [Compound 247], the figures for the EC50 in experiment [1] and in experiment [2] were above 10000 nM and 20 nM, respectively.
